#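 Cells were grown in 96-well plates and exposed to each compound for 48 hours at five concentrations; endpoints were interpolated linearly between bracketing concentrations, or set to the highest concentration if not reached. TGI marks complete inhibition of growth.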
# How the values were obtained:
# Experiment in all cases: DTP human tumour cell line panel, 48 h
# OVCAR-3 ovarian = tested on: OVCAR-3 ovarian
# HOP-62 NSCLC = tested on: HOP-62 NSCLC
# HCT-116 colon = tested on: HCT-116 colon
# M14 melanoma = tested on: M14 melanoma
# SNB-19 CNS = tested on: SNB-19 CNS
# UO-31 renal = tested on: UO-31 renal
# OVCAR-5 ovarian = tested on: OVCAR-5 ovarian
# CAKI-1 renal = tested on: CAKI-1 renal
# NCI-H23 lung = tested on: NCI-H23 lung
# LOX IMVI melanoma = tested on: LOX IMVI melanoma
# IGROV1 ovarian = tested on: IGROV1 ovarian
# HOP-92 NSCLC = tested on: HOP-92 NSCLC
# DLD-1 colon = tested on: DLD-1 colon
# OVCAR-4 ovarian = tested on: OVCAR-4 ovarian
# HL-60(TB) leukemia = tested on: HL-60(TB) leukemia
# SK-MEL-5 melanoma = tested on: SK-MEL-5 melanoma
# SNB-75 CNS = tested on: SNB-75 CNS
# U251 CNS = tested on: U251 CNS
# SF-295 CNS = tested on: SF-295 CNS
# ACHN renal = tested on: ACHN renal
# SN12C renal = tested on: SN12C renal
# 786-0 renal = tested on: 786-0 renal
# SK-OV-3 ovarian = tested on: SK-OV-3 ovarian
# SF-268 CNS = tested on: SF-268 CNS
# K-562 leukemia = tested on: K-562 leukemia
# HT29 colon = tested on: HT29 colon
# KM20L2 colon = tested on: KM20L2 colon
# SR leukemia = tested on: SR leukemia
# TK-10 renal = tested on: TK-10 renal
# KM12 colon = tested on: KM12 colon
# EKVX NSCLC = tested on: EKVX NSCLC
# RXF 393 renal = tested on: RXF 393 renal
# UACC-62 melanoma = tested on: UACC-62 melanoma
# A498 renal = tested on: A498 renal
# SF-539 CNS = tested on: SF-539 CNS
# NCI-H460 lung = tested on: NCI-H460 lung
# UACC-257 melanoma = tested on: UACC-257 melanoma
# A549 NSCLC = tested on: A549 NSCLC
# HCC-2998 colon = tested on: HCC-2998 colon
# NCI-H226 lung = tested on: NCI-H226 lung
# HCT-15 colon = tested on: HCT-15 colon
# SK-MEL-28 melanoma = tested on: SK-MEL-28 melanoma
# DMS 114 small cell lung = tested on: DMS 114 small cell lung
# OVCAR-8 ovarian = tested on: OVCAR-8 ovarian
# LXFL 529 NSCLC = tested on: LXFL 529 NSCLC
# CCRF-CEM leukemia = tested on: CCRF-CEM leukemia
# MALME-3M melanoma = tested on: MALME-3M melanoma
# SW-620 colon = tested on: SW-620 colon
# MOLT-4 leukemia = tested on: MOLT-4 leukemia
# SNB-78 CNS = tested on: SNB-78 CNS
# HOP-18 NSCLC = tested on: HOP-18 NSCLC
# DMS 273 small cell lung = tested on: DMS 273 small cell lung
# COLO 205 colon = tested on: COLO 205 colon
# SK-MEL-2 melanoma = tested on: SK-MEL-2 melanoma
# NCI-H522 lung = tested on: NCI-H522 lung
# MDA-MB-435 = tested on: MDA-MB-435
# DU-145 prostate = tested on: DU-145 prostate
# NCI/ADR-RES ovarian = tested on: NCI/ADR-RES ovarian
# RPMI-8226 leukemia = tested on: RPMI-8226 leukemia
# BT-549 breast = tested on: BT-549 breast
# PC-3 prostate = tested on: PC-3 prostate
# T-47D breast = tested on: T-47D breast
# MDA-N = tested on: MDA-N
# MCF7 breast = tested on: MCF7 breast
# HS 578T breast = tested on: HS 578T breast
# MDA-MB-231 breast = tested on: MDA-MB-231 breast
# M19-MEL melanoma = tested on: M19-MEL melanoma
structure (smiles),measurement,setting,value
CN(C)CCNC(=O)c1ccc2ccc3cccnc3c2n1,TGI,OVCAR-3 ovarian,99 µM
same,TGI,HOP-62 NSCLC,63.1 µM
same,TGI,HCT-116 colon,27.2 µM
same,TGI,M14 melanoma,33.1 µM
same,TGI,SNB-19 CNS,> 93 µM
same,TGI,UO-31 renal,47.9 µM
same,TGI,OVCAR-5 ovarian,47.8 µM
same,TGI,CAKI-1 renal,> 85.5 µM
same,TGI,NCI-H23 lung,42.2 µM
same,TGI,LOX IMVI melanoma,49.8 µM
same,TGI,IGROV1 ovarian,> 100 µM
same,TGI,HOP-92 NSCLC,65.2 µM
same,TGI,DLD-1 colon,> 84.4 µM
same,TGI,OVCAR-4 ovarian,> 69.2 µM
same,TGI,HL-60(TB) leukemia,> 84 µM
same,TGI,SK-MEL-5 melanoma,28.3 µM
same,TGI,SNB-75 CNS,34.4 µM
same,TGI,U251 CNS,> 88.8 µM
same,TGI,SF-295 CNS,88.2 µM
same,TGI,ACHN renal,97.3 µM
same,TGI,SN12C renal,> 92.9 µM
same,TGI,786-0 renal,> 100 µM
same,TGI,SK-OV-3 ovarian,> 100 µM
same,TGI,SF-268 CNS,54.5 µM
same,TGI,K-562 leukemia,> 100 µM
same,TGI,HT29 colon,> 100 µM
same,TGI,KM20L2 colon,72 µM
same,TGI,SR leukemia,30.7 µM
same,TGI,TK-10 renal,62.8 µM
same,TGI,KM12 colon,95.6 µM
same,TGI,EKVX NSCLC,48.3 µM
same,TGI,RXF 393 renal,27.3 µM
same,TGI,UACC-62 melanoma,30.4 µM
same,TGI,A498 renal,> 57.4 µM
same,TGI,SF-539 CNS,33.7 µM
same,TGI,NCI-H460 lung,35.9 µM
same,TGI,UACC-257 melanoma,35.4 µM
same,TGI,A549 NSCLC,> 52.9 µM
same,TGI,HCC-2998 colon,25.4 µM
same,TGI,NCI-H226 lung,39.6 µM
same,TGI,HCT-15 colon,63.5 µM
same,TGI,SK-MEL-28 melanoma,> 61.6 µM
same,TGI,DMS 114 small cell lung,25.6 µM
same,TGI,OVCAR-8 ovarian,> 100 µM
same,TGI,LXFL 529 NSCLC,> 100 µM
same,TGI,CCRF-CEM leukemia,> 100 µM
same,TGI,MALME-3M melanoma,28.7 µM
same,TGI,SW-620 colon,> 100 µM
same,TGI,MOLT-4 leukemia,32.3 µM
same,TGI,SNB-78 CNS,> 34.8 µM
same,TGI,HOP-18 NSCLC,> 100 µM
same,TGI,DMS 273 small cell lung,22.6 µM
same,TGI,COLO 205 colon,23.9 µM
same,TGI,SK-MEL-2 melanoma,29.3 µM
same,TGI,NCI-H522 lung,25.5 µM
O=C1N[C@H]2c3c(Cl)sc(Cl)c3C(=O)[C@H]2O1,TGI,MDA-MB-435,36 µM
same,TGI,OVCAR-3 ovarian,36.8 µM
same,TGI,HOP-62 NSCLC,42 µM
same,TGI,HCT-116 colon,> 35.6 µM
same,TGI,M14 melanoma,52.6 µM
same,TGI,DU-145 prostate,> 54.6 µM
same,TGI,SNB-19 CNS,46.5 µM
same,TGI,NCI/ADR-RES ovarian,37.2 µM
same,TGI,UO-31 renal,38.3 µM
same,TGI,OVCAR-5 ovarian,51.1 µM
same,TGI,RPMI-8226 leukemia,> 80.8 µM
same,TGI,CAKI-1 renal,49.5 µM
same,TGI,NCI-H23 lung,29 µM
same,TGI,BT-549 breast,45 µM
same,TGI,LOX IMVI melanoma,13.9 µM
same,TGI,IGROV1 ovarian,14.4 µM
same,TGI,HOP-92 NSCLC,41.6 µM
same,TGI,OVCAR-4 ovarian,37.5 µM
same,TGI,HL-60(TB) leukemia,4.98 µM
same,TGI,SK-MEL-5 melanoma,> 69 µM
same,TGI,SNB-75 CNS,34.9 µM
same,TGI,U251 CNS,15.7 µM
same,TGI,SF-295 CNS,34.6 µM
same,TGI,ACHN renal,35.6 µM
same,TGI,SN12C renal,> 47.6 µM
same,TGI,786-0 renal,> 54.2 µM
same,TGI,SK-OV-3 ovarian,52.1 µM
same,TGI,SF-268 CNS,37 µM
same,TGI,K-562 leukemia,> 30.7 µM
same,TGI,HT29 colon,13.8 µM
same,TGI,PC-3 prostate,> 62.5 µM
same,TGI,SR leukemia,5.81 µM
same,TGI,TK-10 renal,> 100 µM
same,TGI,KM12 colon,> 100 µM
same,TGI,EKVX NSCLC,27.9 µM
same,TGI,T-47D breast,> 64.8 µM
same,TGI,RXF 393 renal,> 79.8 µM
same,TGI,UACC-62 melanoma,36.4 µM
same,TGI,A498 renal,43.2 µM
same,TGI,SF-539 CNS,39.9 µM
same,TGI,NCI-H460 lung,37 µM
same,TGI,UACC-257 melanoma,36.2 µM
same,TGI,A549 NSCLC,> 100 µM
same,TGI,HCC-2998 colon,19.9 µM
same,TGI,NCI-H226 lung,42.3 µM
same,TGI,HCT-15 colon,5.51 µM
same,TGI,SK-MEL-28 melanoma,24.7 µM
same,TGI,OVCAR-8 ovarian,12.2 µM
same,TGI,CCRF-CEM leukemia,> 21.2 µM
same,TGI,MDA-N,> 57.5 µM
same,TGI,MCF7 breast,> 100 µM
same,TGI,MALME-3M melanoma,24.1 µM
same,TGI,SW-620 colon,7.71 µM
same,TGI,HS 578T breast,43.5 µM
same,TGI,MOLT-4 leukemia,5.11 µM
same,TGI,COLO 205 colon,> 51 µM
same,TGI,MDA-MB-231 breast,> 58.2 µM
same,TGI,SK-MEL-2 melanoma,> 59.9 µM
same,TGI,NCI-H522 lung,3.43 µM
CCCCCCCCCCCCCCCC[N+](C)(C)Cc1ccc(C[N+](C)(C)CCCCCCCCCCCCCCCC)cc1,TGI,HOP-62 NSCLC,> 100 µM
same,TGI,M14 melanoma,> 100 µM
same,TGI,UO-31 renal,> 100 µM
same,TGI,OVCAR-5 ovarian,4.67 µM
same,TGI,RPMI-8226 leukemia,> 100 µM
same,TGI,CAKI-1 renal,> 100 µM
same,TGI,LOX IMVI melanoma,6.07 µM
same,TGI,M19-MEL melanoma,> 100 µM
same,TGI,DLD-1 colon,> 100 µM
same,TGI,OVCAR-4 ovarian,> 100 µM
same,TGI,SK-MEL-5 melanoma,> 100 µM
same,TGI,U251 CNS,3.82 µM
same,TGI,ACHN renal,> 100 µM
same,TGI,SK-OV-3 ovarian,5.27 µM
same,TGI,SF-268 CNS,> 100 µM
same,TGI,K-562 leukemia,8.52 µM
same,TGI,KM20L2 colon,> 100 µM
same,TGI,SR leukemia,> 100 µM
same,TGI,TK-10 renal,> 100 µM
same,TGI,EKVX NSCLC,> 100 µM
same,TGI,RXF 393 renal,3.27 µM
same,TGI,UACC-62 melanoma,> 100 µM
same,TGI,A498 renal,> 100 µM
same,TGI,NCI-H460 lung,8.71 µM
same,TGI,UACC-257 melanoma,> 100 µM
same,TGI,HCC-2998 colon,> 100 µM
same,TGI,HCT-15 colon,> 100 µM
same,TGI,SK-MEL-28 melanoma,7.57 µM
same,TGI,DMS 114 small cell lung,5.02 µM
same,TGI,LXFL 529 NSCLC,> 100 µM
same,TGI,SW-620 colon,> 100 µM
same,TGI,COLO 205 colon,> 100 µM
same,TGI,NCI-H522 lung,> 22.4 µM
COc1ccc(CN2C(=O)CCC/C=C\[C@H]2CI)cc1,TGI,MDA-MB-435,25.2 µM
same,TGI,OVCAR-3 ovarian,23.7 µM
same,TGI,HOP-62 NSCLC,31.1 µM
same,TGI,HCT-116 colon,24 µM
same,TGI,M14 melanoma,22.6 µM
same,TGI,DU-145 prostate,26 µM
same,TGI,SNB-19 CNS,25.9 µM
same,TGI,NCI/ADR-RES ovarian,28.2 µM
same,TGI,UO-31 renal,23.8 µM
same,TGI,OVCAR-5 ovarian,24.5 µM
same,TGI,RPMI-8226 leukemia,31.2 µM
same,TGI,CAKI-1 renal,21.9 µM
same,TGI,NCI-H23 lung,28.7 µM
same,TGI,BT-549 breast,33.7 µM
same,TGI,LOX IMVI melanoma,34 µM
same,TGI,IGROV1 ovarian,29 µM
same,TGI,HOP-92 NSCLC,25.3 µM
same,TGI,OVCAR-4 ovarian,22.8 µM
same,TGI,SK-MEL-5 melanoma,25.1 µM
same,TGI,SNB-75 CNS,17.5 µM
same,TGI,U251 CNS,26.5 µM
same,TGI,SF-295 CNS,26.3 µM
same,TGI,ACHN renal,27.3 µM
same,TGI,SN12C renal,27 µM
same,TGI,786-0 renal,27 µM
same,TGI,SK-OV-3 ovarian,30 µM
same,TGI,SF-268 CNS,27.2 µM
same,TGI,K-562 leukemia,> 100 µM
same,TGI,HT29 colon,21.5 µM
same,TGI,PC-3 prostate,20.7 µM
same,TGI,SR leukemia,> 100 µM
same,TGI,TK-10 renal,25 µM
same,TGI,KM12 colon,23 µM
same,TGI,EKVX NSCLC,22.5 µM
same,TGI,T-47D breast,6.69 µM
same,TGI,RXF 393 renal,17.2 µM
same,TGI,UACC-62 melanoma,22.6 µM
same,TGI,A498 renal,25 µM
same,TGI,SF-539 CNS,26.4 µM
same,TGI,NCI-H460 lung,25.7 µM
same,TGI,UACC-257 melanoma,21.7 µM
same,TGI,A549 NSCLC,21.5 µM
same,TGI,HCC-2998 colon,23.8 µM
same,TGI,NCI-H226 lung,25.5 µM
same,TGI,HCT-15 colon,24.9 µM
same,TGI,SK-MEL-28 melanoma,25.2 µM
same,TGI,OVCAR-8 ovarian,27.5 µM
same,TGI,MDA-N,25.8 µM
same,TGI,MCF7 breast,22.5 µM
same,TGI,MALME-3M melanoma,24.4 µM
same,TGI,SW-620 colon,23.8 µM
same,TGI,HS 578T breast,33.2 µM
same,TGI,MOLT-4 leukemia,25.6 µM
same,TGI,COLO 205 colon,26.9 µM
same,TGI,MDA-MB-231 breast,23 µM
same,TGI,SK-MEL-2 melanoma,23 µM
same,TGI,NCI-H522 lung,26.5 µM
